pEC50: −log10 of the molar value.

Tested on in one series: not given
Assay: not given
Conditions: not given
Take `CN(c1cc(OCCCS(C)(=O)=O)cc2cc(C3=NCC(CN4CCOCC4)S3)[nH]c12)S(=O)(=O)c1ccccn1` (centres unmarked) [Example 321, N-methyl-N-{5-[3-(methylsulfonyl)propoxy]-2-[5-(morpholinomethyl)-4,5-dihydro-1,3-thiazol-2-yl]-1H-indol-7-yl}pyridine-2-sulfonamide]: the melting point (commonly the temperature, or range, at which the solid turns liquid) lay in the range of 168 to 169 °C. For the compound `CN(c1cc(OCCCS(C)(=O)=O)cc2cc(C3=NCC(CN4CC[S+]([O-])CC4)S3)[nH]c12)S(=O)(=O)c1ccccn1` (centres unmarked) [Example 323, N-methyl-N-(5-[3-(methylsulfonyl)propoxy]-2-{5-[(1-oxidothiomorpholino)methyl]-4,5-dihydro-1,3-thiazol-2-yl}-1H-indol-7-yl)pyridine-2-sulfonamide], the melting point lay in the range of 107 to 110 °C. On to `CC(=O)N1CCN(CC2CN=C(c3cc4cc(OCCCS(C)(=O)=O)cc(N(C)S(=O)(=O)c5ccccn5)c4[nH]3)S2)CC1` (centres unmarked) [Example 324, N-{2-{5-[(4-acetylpiperazin-1-yl)methyl]-4,5-dihydro-1,3-thiazol-2-yl}-5-[3-(methylsulfonyl)propoxy]-1H-indol-7-yl}-N-methylpyridine-2-sulfonamide], for which the melting point was in the range of 165 to 167 °C. Same read-out and setting: the value for `CN(c1cc(OCCCS(C)(=O)=O)cc2cc(C3=NCC(CN4CCN(S(C)(=O)=O)CC4)S3)[nH]c12)S(=O)(=O)c1ccccn1` (centres unmarked) [Example 325, N-methyl-N-{2-(5-{[4-(methylsulfonyl)piperazin-1-yl]methyl}-4,5-dihydro-1,3-thiazol-2-yl)-5-[3-(methylsulfonyl)propoxy]-1H-indol-7-yl}pyridine-2-sulfonamide] was 151 to 153 °C; that for `CN(c1cccc2cc(C3=NCC(CC(=O)O)S3)[nH]c12)S(=O)(=O)c1ccccn1` (centres unmarked) [Example 333, (2-{7-[methyl(pyridin-2-ylsulfonyl)amino]-1H-indol-2-yl}-4,5-dihydro-1,3-thiazol-5-yl)acetic acid] was 231 to 233 °C; that for `CN(c1cccc2cc(C3=NCC(CC(N)=O)S3)[nH]c12)S(=O)(=O)c1ccccn1` (centres unmarked) [Example 334, 2-(2-{7-[methyl(pyridin-2-ylsulfonyl)amino]-1H-indol-2-yl}-4,5-dihydro-1,3-thiazol-5-yl)acetamide] was 206 to 207 °C.

With `CN(c1cccc2cc(C3=NCC(CC(N)=O)S3)[nH]c12)S(=O)(=O)c1ccccn1` (centres unmarked) [Example 338, 2-(2-{7-[methyl(pyridin-2-ylsulfonyl)amino]-1H-indol-2-yl}-4,5-dihydro-1,3-thiazol-5-yl)acetamide], the melting point was in the range of 148 to 149 °C. On the same count and under the same terms, the value for `O=S(=O)(c1cccs1)N(c1cccc2cc(C3=NCC(CN4CCOCC4)S3)[nH]c12)C(F)F` (centres unmarked) [Example 346, N-(difluoromethyl)-N-{2-[5-(morpholinomethyl)-4,5-dihydro-1,3-thiazol-2-yl]-1H-indol-7-yl}thiophene-2-sulfonamide] was 185 to 186 °C; that for `CN(c1cc(OC(F)(F)F)cc2cc(C3=NCC(CC(N)=O)S3)[nH]c12)S(=O)(=O)c1cccs1` (centres unmarked) [Example 384, 2-{2-[7-[methyl(2-thienylsulfonyl)amino]-5-(trifluoromethoxy)-1H-indol-2-yl]-4,5-dihydro-1,3-thiazol-5-yl}acetamide] was 186 to 187 °C.

The next series concerns the target T1, GST-hLGK1 (human liver GK) (Homo sapiens, UniProt P35557).
T1 construct: made in house; host or cells: Escherichia coli BL21 (Stratagene), plasmid pGEX6P-2/hLGK1
T1 sequence (P35557 1-464 isoform P35557-3): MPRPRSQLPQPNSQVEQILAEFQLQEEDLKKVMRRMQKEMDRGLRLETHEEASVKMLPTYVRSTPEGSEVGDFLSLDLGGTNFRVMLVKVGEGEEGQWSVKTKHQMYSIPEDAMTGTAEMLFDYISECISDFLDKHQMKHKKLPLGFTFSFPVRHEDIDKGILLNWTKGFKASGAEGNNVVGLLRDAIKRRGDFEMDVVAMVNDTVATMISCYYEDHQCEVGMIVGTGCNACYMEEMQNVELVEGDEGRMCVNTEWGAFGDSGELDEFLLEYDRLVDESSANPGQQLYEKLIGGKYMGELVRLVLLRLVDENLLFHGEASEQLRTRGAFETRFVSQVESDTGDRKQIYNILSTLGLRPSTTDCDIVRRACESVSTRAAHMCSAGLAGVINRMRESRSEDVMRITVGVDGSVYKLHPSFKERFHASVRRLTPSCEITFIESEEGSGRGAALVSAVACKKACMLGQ
Description: Determination of GK activity value (GST-hLGK1, Mant-ATP, capillary electrophoresis). The note with it: glucokinase activation; GST-hLGK1, D-glucose, 37° C. for 60 min; concentration at midpoint between maximum activity value and control group activity value. Type of series: biochemical. How it is done:
Plasmid DNA to be used for the expression of a protein (GST-hLGK1) containing GST (Glutathione S-transferase) added to the amino terminal of human liver GK in Escherichia coli was prepared as follows.
BL21 strain (Stratagene) transformed with pGEX6P-2/hLGK1 obtained in Reference Example 1A was cultured with shaking at 37° C. for 14 hr in a 200 ml Erlenmeyer flask containing 50 ml of 100 μg/ml ampicillin-containing LB medium. The culture medium (25 ml) was diluted with 225 ml of 100 μg/ml ampicillin-containing LB medium, and further cultured with shaking at 37° C. for 1 hr in a 1 L Erlenmeyer flask. After culture, the Erlenmeyer flask was cooled on ice, 125 μL of 100 mM isopropyl-thio-β-D-galactopyranoside (IPTG) was added (final concentration 50 μM), and cultured at 17° C. for 20 hr. The culture medium was centrifuged, and the obtained fungus was disrupted by ultrasonication. The object protein (GST-hLGK1) was purified from the supernatant using Glutathione Sepharose 4B (Amersham Biosciences K.K.).
A solution (5 μL) of test compound in 50% dimethyl sulfoxide was added to each well of 384 well black plate (Nalge Nunc International K.K.). Then, a solution ([…]) obtained by diluting GST-hLGK1 obtained in Reference Example 2A with measurement buffer (containing 50 mM HEPES (pH 7.4), 200 mM KCl, 5 mM MgCl2, 2.5 mM DTT and 50 μM 2′-(or-3′)-O—(N-methylanthraniloyl)adenosine 5′-triphosphate (Mant-ATP) (Jena Bioscience GmbH)) to 6 μg/mL was added to each well.
Each well was stood at 37° C. for 10 min, and 25 mM D-glucose solution (10 μL) was added to start the reaction.
Each well after the reaction was stood at 37° C. for 60 min, and the reaction was quenched by adding 25 μL of a quenching solution (containing 200 mM HEPES (pH 7.4), 20 mM MgCl2, 200 mM EDTA, 0.03% Triton-X 100, 0.3% Coating 3 reagent (Caliper Life Sciences, Inc.)).
2′-(or-3′)-O—(N-methylanthraniloyl)adenosine 5′-triphosphate (Mant-ATP, substrate) and Mant-ADP (reaction resultant product) were separated from each well after the reaction by a microchip type capillary electrophoresis apparatus 250 HTS (Caliper Life Sciences, Inc.). The reaction rate [(reaction resultant product peak height)/(reaction resultant product peak height+substrate peak height)×100(%)] was calculated from the ratio of the substrate peak height and reaction resultant product peak height obtained by fluorescence detection (excitation wavelength 355 nm, measurement wavelength 460 nm) and used as the index of GK activity.
As a control group, the reaction rate was calculated in the same manner as above except that “solution in 50% dimethyl sulfoxide (without test compound)” was used instead of “solution of test compound in 50% dimethyl sulfoxide”.
A concentration dependency curve of the test compound was drawn with the percentage obtained by dividing the reaction rate of the well added with the test compound (test compound addition group) by the reaction rate of the control group was taken as the GK activity value of the test compound, and the concentration of the test compound at the midpoint between the maximum activity value of the test compound addition group and the control group activity value is shown as EC50 value.
On to `CN(c1cccc2cc(C3=NCC(CN4CCOCC4)S3)[nH]c12)S(=O)(=O)c1cccs1` (single isomer, unassigned) [Example 274, N-methyl-N-{2-[5-(morpholinomethyl)-4,5-dihydro-1,3-thiazol-2-yl]-1H-indol-7-yl}thiophene-2-sulfonamide], for which the negative-log EC50 (pEC50) (as a rule, the negative decadic logarithm of the EC50, by convention in mol/L) is 7.09. As to `O=S(=O)(c1cccs1)N(c1cccc2cc(C3=NCC(CN4CCOCC4)S3)[nH]c12)C(F)F` (single isomer, unassigned) [Example 348, N-(difluoromethyl)-N-{2-[5-(morpholinomethyl)-4,5-dihydro-1,3-thiazol-2-yl]-1H-indol-7-yl}thiophene-2-sulfonamide], the pEC50 is 7.36. Against the preceding compound, the pEC50 is 0.27 log units higher.

For the compound `COCCOc1cc(N(C)S(=O)(=O)c2ccccn2)c2[nH]c(C3=NCC(CN4CC[S+]([O-])CC4)S3)cc2c1` (single isomer, unassigned) [Example 398, N-(5-(2-methoxyethoxy)-2-{5-[(1-oxidothiomorpholino)methyl]-4,5-dihydro-1,3-thiazol-2-yl}-1H-indol-7-yl)-N-methylpyridine-2-sulfonamide], the pEC50 was 6.68. Regarding `CN(c1cc(OC(F)(F)F)cc2cc(C3=NCC(CC(N)=O)S3)[nH]c12)S(=O)(=O)c1cccs1` (single isomer, unassigned) [Example 520, 2-{2-[7-[methyl(2-thienylsulfonyl)amino]-5-(trifluoromethoxy)-1H-indol-2-yl]-4,5-dihydro-1,3-thiazol-5-yl}acetamide], the pEC50 is 6.72. `COCCOc1cc(N(C)S(=O)(=O)c2ccccn2)c2[nH]c(C3=NCC(CN4CCS(=O)(=O)CC4)S3)cc2c1` (single isomer, unassigned) [Example 528, N-[2-{5-[(1,1-dioxidothiomorpholino)methyl]-4,5-dihydro-1,3-thiazol-2-yl}-5-(2-methoxyethoxy)-1H-indol-7-yl]-N-methylpyridine-2-sulfonamide]: the pEC50 was 6.59. As to `CN(C)C(=O)CN1CCN(Cc2cnc(-c3cc4cccc(N(C)S(=O)(=O)c5cccs5)c4[nH]3)s2)CC1` [Example 10, N,N-dimethyl-2-{4-[(2-{7-[methyl(2-thienylsulfonyl)amino]-1H-indol-2-yl}-1,3-thiazol-5-yl)methyl]piperazin-1-yl}acetamide ditrifluoroacetate], the pEC50 was 6.68. The same measure, in the same setting: as for `CC(=O)N1CCN(Cc2cnc(-c3cc4c(Cl)ccc(N(C)S(=O)(=O)c5cccs5)c4[nH]3)s2)CC1` [Example 191, N-(2-{5-[(4-acetylpiperazin-1-yl)methyl]-1,3-thiazol-2-yl}-4-chloro-1H-indol-7-yl)-N-methylthiophene-2-sulfonamide], the figure is 7.51; as for `CC(=O)N1CCN(Cc2nnc(-c3cc4cccc(N(C)S(=O)(=O)c5cccs5)c4[nH]3)s2)CC1` [Example 198, N-(2-{5-[(4-acetylpiperazin-1-yl)methyl]-1,3,4-thiadiazol-2-yl}-1H-indol-7-yl)-N-methylthiophene-2-sulfonamide], 6.28. `CN(c1cccc2cc(C3=NCC(C)(CCN4CCOCC4)S3)[nH]c12)S(=O)(=O)c1cccs1` (centres unmarked) [Example 200, N-methyl-N-{2-[5-methyl-5-(2-(morpholino)ethyl)-4,5-dihydro-1,3-thiazol-2-yl]-1H-indol-7-yl}thiophene-2-sulfonamide]: the negative logarithm of the EC50 (pEC50) is 7.21. In the case of `CC(=O)N1CCN(CC2CN=C(c3cc4cccc(N(C)S(=O)(=O)c5cccs5)c4[nH]3)S2)CC1` (centres unmarked) [Example 218, N-(2-{5-[(4-acetylpiperazin-1-yl)methyl]-4,5-dihydro-1,3-thiazol-2-yl}-1H-indol-7-yl)-N-methylthiophene-2-sulfonamide], the negative-log EC50 (pEC50) is 6.74.

Compound `CN(c1cccc2cc(C3=NCC(C(C)(C)O)S3)[nH]c12)S(=O)(=O)c1cccs1` (centres unmarked) [Example 226, N-{2-[5-(1-hydroxy-1-methylethyl)-4,5-dihydro-1,3-thiazol-2-yl]-1H-indol-7-yl}-N-methylthiophene-2-sulfonamide] showed a negative logarithm of the EC50 (pEC50) of 7.28.
